Where two headings read alike, the source gives them in different places.
Key:
HOP-62 [1] = experiment: in vitro test at 1.0×10^−5 M, Non-small cell lung cancer cell; assay type: cell-based; settings: 1.0×10^−5 molal concentration (M)
HS 578T = experiment: in vitro test at 1.0×10^−5 M, Breast cancer cell; assay type: cell-based; settings: 1.0×10^−5 molal concentration (M)
LOX IMV1 = experiment: in vitro test at 1.0×10^−5 M, Skin cancer cell; assay type: cell-based; settings: 1.0×10^−5 molal concentration (M)
[2] = tested on: different cancer cell lines; experiment: in vitro test at 1.0×10^−5 M, summary over the cell lines; assay type: cell-based; settings: 1.0×10^−5 molal concentration (M)
CCRF-CEM [3] = tested on: CCRF-CEM
HL-60(TB) [4] = tested on: HL-60(TB)
K-562 [5] = tested on: K-562
MOLT-4 [6] = tested on: MOLT-4
RPMI-8226 [7] = tested on: RPMI-8226
A549/ATCC [8] = tested on: A549/ATCC
EKVX [9] = tested on: EKVX
HOP-62 [10] = tested on: HOP-62
HOP-92 [11] = tested on: HOP-92
NCI-H460 [12] = tested on: NCI-H460
NCI-H522 [13] = tested on: NCI-H522
CCRF-CEM [14] = experiment: cells; settings: Homo sapiens
HL-60(TB) [15] = experiment: cells; settings: Homo sapiens
K-562 [16] = experiment: cells; settings: Homo sapiens
PC-3 [17] = tested on: PC-3
MOLT-4 [18] = experiment: cells; settings: Homo sapiens
DU-145 [19] = tested on: DU-145
RPMI-8226 [20] = experiment: cells; settings: Homo sapiens
A549/ATCC [21] = experiment: cells; settings: Homo sapiens
EKVX [22] = experiment: cells; settings: Homo sapiens
HOP-62 [23] = experiment: cells; settings: Homo sapiens
HOP-92 [24] = experiment: cells; settings: Homo sapiens
NCI-H226 = experiment: cells; settings: Homo sapiens
NCI-H23 = experiment: cells; settings: Homo sapiens
NCI-H460 [25] = experiment: cells; settings: Homo sapiens
NCI-H522 [26] = experiment: cells; settings: Homo sapiens
PC-3 [27] = experiment: cells; settings: Homo sapiens
DU-145 [28] = experiment: cells; settings: Homo sapiens

O=C1c2ccccc2C(=O)c2c1ccc1nsnc21 [No. 22, Anthra[2,1-c][1,2,5]thiadiazole-6,11-dione]
inhibition effect on cancer cell line (Table 2 value) (HOP-62 [1]): −100.00
inhibition effect on cancer cell line (Table 2 value) (HS 578T): −7.40
inhibition effect on cancer cell line (Table 2 value) (LOX IMV1): −50.6
Mean [2]: 2.68
TGI (CCRF-CEM [3]; CCRF-CEM): >1.00E−4
Percent Growth (CCRF-CEM [3]; Log10 Concentration −4.0): 2%
Percent Growth (CCRF-CEM [3]; Log10 Concentration −5.0): 2%
Percent Growth (CCRF-CEM [3]; Log10 Concentration −6.0): 74%
Percent Growth (CCRF-CEM [3]; Log10 Concentration −7.0): 90%
Percent Growth (CCRF-CEM [3]; Log10 Concentration −8.0): 97%
TGI (HL-60(TB) [4]; HL-60(TB)): 5.13E−6
Percent Growth (HL-60(TB) [4]; Log10 Concentration −4.0): −43%
Percent Growth (HL-60(TB) [4]; Log10 Concentration −5.0): −38%
Percent Growth (HL-60(TB) [4]; Log10 Concentration −6.0): 93%
Percent Growth (HL-60(TB) [4]; Log10 Concentration −7.0): 102%
Percent Growth (HL-60(TB) [4]; Log10 Concentration −8.0): 103%
TGI (K-562 [5]; K-562): 4.92E−5
Percent Growth (K-562 [5]; Log10 Concentration −4.0): −8%
Percent Growth (K-562 [5]; Log10 Concentration −5.0): 19%
Percent Growth (K-562 [5]; Log10 Concentration −6.0): 83%
Percent Growth (K-562 [5]; Log10 Concentration −7.0): 96%
Percent Growth (K-562 [5]; Log10 Concentration −8.0): 101%
Percent Growth (MOLT-4 [6]; Log10 Concentration −4.0): −38%
Percent Growth (MOLT-4 [6]; Log10 Concentration −5.0): −40%
Percent Growth (MOLT-4 [6]; Log10 Concentration −6.0): 73%
Percent Growth (MOLT-4 [6]; Log10 Concentration −7.0): 99%
Percent Growth (MOLT-4 [6]; Log10 Concentration −8.0): 97%
TGI (MOLT-4 [6]; MOLT-4): 4.43E−6
Percent Growth (RPMI-8226 [7]; Log10 Concentration −4.0): −20%
Percent Growth (RPMI-8226 [7]; Log10 Concentration −6.0): 61%
Percent Growth (RPMI-8226 [7]; Log10 Concentration −7.0): 94%
Percent Growth (RPMI-8226 [7]; Log10 Concentration −8.0): 100%
TGI (RPMI-8226 [7]; RPMI-8226): 9.91E−6
TGI (A549/ATCC [8]; A549/ATCC): 5.94E−6
Percent Growth (A549/ATCC [8]; Log10 Concentration −4.0): −18%
Percent Growth (A549/ATCC [8]; Log10 Concentration −5.0): −27%
Percent Growth (A549/ATCC [8]; Log10 Concentration −6.0): 92%
Percent Growth (A549/ATCC [8]; Log10 Concentration −7.0): 93%
Percent Growth (A549/ATCC [8]; Log10 Concentration −8.0): 104%
TGI (EKVX [9]; EKVX): 7.03E−6
Percent Growth (EKVX [9]; Log10 Concentration −4.0): −62%
Percent Growth (EKVX [9]; Log10 Concentration −5.0): −15%
Percent Growth (EKVX [9]; Log10 Concentration −6.0): 84%
Percent Growth (EKVX [9]; Log10 Concentration −7.0): 89%
Percent Growth (EKVX [9]; Log10 Concentration −8.0): 96%
TGI (HOP-62 [10]; HOP-62): 1.21E−5
Percent Growth (HOP-62 [10]; Log10 Concentration −4.0): −49%
Percent Growth (HOP-62 [10]; Log10 Concentration −5.0): 4%
Percent Growth (HOP-62 [10]; Log10 Concentration −6.0): 107%
Percent Growth (HOP-62 [10]; Log10 Concentration −7.0): 107%
Percent Growth (HOP-62 [10]; Log10 Concentration −8.0): 107%
TGI (HOP-92 [11]; HOP-92): 9.84E−6
Percent Growth (HOP-92 [11]; Log10 Concentration −4.0): −27%
Percent Growth (HOP-92 [11]; Log10 Concentration −5.0): −1%
Percent Growth (HOP-92 [11]; Log10 Concentration −6.0): 94%
Percent Growth (HOP-92 [11]; Log10 Concentration −7.0): 88%
Percent Growth (HOP-92 [11]; Log10 Concentration −8.0): 95%
Percent Growth (NCI-H460 [12]; Log10 Concentration −4.0): −58%
Percent Growth (NCI-H460 [12]; Log10 Concentration −5.0): −53%
Percent Growth (NCI-H460 [12]; Log10 Concentration −6.0): 87%
Percent Growth (NCI-H460 [12]; Log10 Concentration −7.0): 97%
Percent Growth (NCI-H460 [12]; Log10 Concentration −8.0): 100%
TGI (NCI-H460 [12]; NCI-H460): 4.19E−6
Percent Growth (NCI-H522 [13]; Log10 Concentration −4.0): −18%
Percent Growth (NCI-H522 [13]; Log10 Concentration −5.0): 6%
Percent Growth (NCI-H522 [13]; Log10 Concentration −6.0): 90%
Percent Growth (NCI-H522 [13]; Log10 Concentration −7.0): 103%
Percent Growth (NCI-H522 [13]; Log10 Concentration −8.0): 103%
TGI (NCI-H522 [13]; NCI-H522): 1.78E−5
GI50 (CCRF-CEM [14]): 2.18 µM
CC50 (CCRF-CEM [14]; read-out: LC50): > 100 µM
GI50 (HL-60(TB) [15]; HL-60): 2.14 µM
CC50 (HL-60(TB) [15]; HL-60, read-out: LC50): > 100 µM
GI50 (K-562 [16]; K562): 3.23 µM
CC50 (K-562 [16]; K562, read-out: LC50): > 100 µM
Percent Growth (PC-3 [17]; Log10 Concentration −4.0): 4%
Percent Growth (PC-3 [17]; Log10 Concentration −5.0): 11%
Percent Growth (PC-3 [17]; Log10 Concentration −6.0): 86%
Percent Growth (PC-3 [17]; Log10 Concentration −7.0): 92%
Percent Growth (PC-3 [17]; Log10 Concentration −8.0): 96%
TGI (PC-3 [17]; PC-3): >1.00E−4
GI50 (MOLT-4 [18]; MOLT-4): 1.59 µM
CC50 (MOLT-4 [18]; MOLT-4, read-out: LC50): > 100 µM
TGI (DU-145 [19]; DU-145): 1.95E−5
Percent Growth (DU-145 [19]; Log10 Concentration −4.0): −100%
Percent Growth (DU-145 [19]; Log10 Concentration −5.0): 41%
Percent Growth (DU-145 [19]; Log10 Concentration −6.0): 110%
Percent Growth (DU-145 [19]; Log10 Concentration −7.0): 114%
Percent Growth (DU-145 [19]; Log10 Concentration −8.0): 110%
GI50 (RPMI-8226 [20]; RPMI-8226): 1.53 µM
CC50 (RPMI-8226 [20]; RPMI-8226, read-out: LC50): > 100 µM
GI50 (A549/ATCC [21]; A549): 2.25 µM
CC50 (A549/ATCC [21]; A549, read-out: LC50): > 100 µM
GI50 (EKVX [22]): 2.19 µM
CC50 (EKVX [22]; read-out: LC50): 56.5 µM
GI50 (HOP-62 [23]; HOP-62): 3.59 µM
CC50 (HOP-62 [23]; HOP-62, read-out: LC50): > 100 µM
GI50 (HOP-92 [24]; HOP-92): 2.91 µM
CC50 (HOP-92 [24]; HOP-92, read-out: LC50): > 100 µM
GI50 (NCI-H226; NCI-H226): 15.6 µM
CC50 (NCI-H226; NCI-H226, read-out: LC50): > 100 µM
GI50 (NCI-H23; NCI-H23): 0.802 µM
CC50 (NCI-H23; NCI-H23, read-out: LC50): > 100 µM
GI50 (NCI-H460 [25]; NCI-H460): 1.84 µM
CC50 (NCI-H460 [25]; NCI-H460, read-out: LC50): 9.54 µM
GI50 (NCI-H522 [26]; NCI-H522): 3.01 µM
CC50 (NCI-H522 [26]; NCI-H522, read-out: LC50): > 100 µM
GI50 (PC-3 [27]; PC-3): 3.03 µM
CC50 (PC-3 [27]; PC-3, read-out: LC50): > 100 µM
GI50 (DU-145 [28]; DU-145): 7.41 µM
CC50 (DU-145 [28]; DU-145, read-out: LC50): 44.2 µM

From patent US8445492B2, “Method for inhibiting growth of cancer cells and cell telomere and diseases of cell proliferation by using heteroannelated anthraquinone derivative compounds” (National Defense Medical Center, priority 2008, dated 2013)
